Laboratory results published in patent publication US9956198B2, “Furo[3,4-b]pyran compounds and pharmaceutical uses” (Victoria Link Limited, priority 2013, dated 2018).
Where two headings read alike, the source gives them in different places. Values belong to the compound of their own block, whether it stands above or below them.

Columns and labels:
c-Src (sarcoma) kinase = c-Src (sarcoma) kinase (Homo sapiens, UniProt P12931); details: cited from earlier work
[1] = system: PTH-induced bone resorption; details: cited from earlier work
NUAK2 = target: T1, NUAK2 (Homo sapiens, UniProt Q9H093); experiment: SelectScreen kinase profiling, LanthaScreen protocol; type: biochemical
T1 sequence (Q9H093 1-628): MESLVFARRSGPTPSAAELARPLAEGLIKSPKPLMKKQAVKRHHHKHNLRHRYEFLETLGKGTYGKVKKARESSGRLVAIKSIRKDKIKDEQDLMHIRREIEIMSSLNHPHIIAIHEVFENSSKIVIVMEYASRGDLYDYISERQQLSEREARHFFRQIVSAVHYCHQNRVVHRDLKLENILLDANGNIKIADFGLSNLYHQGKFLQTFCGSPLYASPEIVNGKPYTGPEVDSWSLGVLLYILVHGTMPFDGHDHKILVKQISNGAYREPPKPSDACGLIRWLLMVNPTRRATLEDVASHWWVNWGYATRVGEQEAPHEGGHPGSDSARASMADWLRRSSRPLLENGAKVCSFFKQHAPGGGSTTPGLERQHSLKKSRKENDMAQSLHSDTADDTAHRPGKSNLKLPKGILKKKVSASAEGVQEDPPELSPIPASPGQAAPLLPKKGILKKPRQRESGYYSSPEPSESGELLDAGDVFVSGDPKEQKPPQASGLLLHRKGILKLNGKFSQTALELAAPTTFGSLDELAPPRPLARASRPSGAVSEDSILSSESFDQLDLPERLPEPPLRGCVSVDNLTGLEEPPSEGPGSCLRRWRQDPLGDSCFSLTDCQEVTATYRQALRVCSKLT
Procedure: (§1) Kinase inhibition assays were conducted by Life Technologies using their SelectScreen® Whole Panel ACCESS Biochemical Kinase Profiling Service. The Z'-LYTE® Screening Protocol was used to obtain the results for the following kinases: AMPK A2/B1/G1, BMX, BTK, MAPK14 (p38 alpha), PLK1, TXK. The LanthaScreen Protocol was used to obtain the result for the following kinase: NUAK2.
(§2) Compound 10 was assessed for kinase inhibition by Life Technologies using the SelectScreen® Whole Panel ACCESS Biochemical Kinase Profiling Service. The Z'-LYTE® Screening Protocol was used to obtain the results for the following kinases: AMPK A2/B1/G1, BMX, BTK, MAPK14 (p38 alpha), PLK1, TXK. The LanthaScreen Protocol was used to obtain the result for the following kinase: NUAK2.

TXK = target: T2, TXK (Homo sapiens, UniProt P42681); experiment: SelectScreen kinase profiling, Z'-LYTE protocol; type: biochemical
T2 sequence (P42681 1-527): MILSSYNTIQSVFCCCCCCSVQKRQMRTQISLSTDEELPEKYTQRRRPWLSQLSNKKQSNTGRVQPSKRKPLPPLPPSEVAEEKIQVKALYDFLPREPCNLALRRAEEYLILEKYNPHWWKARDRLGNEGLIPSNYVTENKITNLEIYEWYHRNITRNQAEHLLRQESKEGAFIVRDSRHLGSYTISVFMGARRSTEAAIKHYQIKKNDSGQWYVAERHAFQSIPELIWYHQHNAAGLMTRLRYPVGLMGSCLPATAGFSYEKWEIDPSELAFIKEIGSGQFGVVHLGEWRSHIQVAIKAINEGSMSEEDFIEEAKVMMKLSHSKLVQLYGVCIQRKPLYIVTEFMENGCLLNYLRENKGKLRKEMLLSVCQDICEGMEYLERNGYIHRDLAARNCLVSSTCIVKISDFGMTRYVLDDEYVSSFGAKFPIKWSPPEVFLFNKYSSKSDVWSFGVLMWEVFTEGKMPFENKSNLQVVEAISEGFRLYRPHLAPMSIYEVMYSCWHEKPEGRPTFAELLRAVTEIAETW
Procedure: as §1, §2

MAPK14 (p38 alpha) = MAPK14 (p38 alpha) (Homo sapiens, UniProt Q16539); experiment: SelectScreen kinase profiling, Z'-LYTE protocol; type: biochemical
Sequence of MAPK14 (p38 alpha) (Q16539 whole entry): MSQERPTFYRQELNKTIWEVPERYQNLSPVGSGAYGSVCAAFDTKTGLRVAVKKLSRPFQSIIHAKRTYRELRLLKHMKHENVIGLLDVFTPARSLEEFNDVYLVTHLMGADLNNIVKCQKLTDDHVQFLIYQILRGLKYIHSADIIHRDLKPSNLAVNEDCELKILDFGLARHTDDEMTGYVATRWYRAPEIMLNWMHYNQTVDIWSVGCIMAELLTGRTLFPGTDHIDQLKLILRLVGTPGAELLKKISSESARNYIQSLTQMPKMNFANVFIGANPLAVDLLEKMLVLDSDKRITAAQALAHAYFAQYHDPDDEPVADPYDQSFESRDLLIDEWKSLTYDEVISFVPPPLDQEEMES
Procedure: as §1, §2

AMPK A2/B1/G1 = AMPK A2/B1/G1 (Homo sapiens, UniProt P54646); experiment: SelectScreen kinase profiling, Z'-LYTE protocol; type: biochemical
Sequence of AMPK A2/B1/G1 (P54646 whole entry): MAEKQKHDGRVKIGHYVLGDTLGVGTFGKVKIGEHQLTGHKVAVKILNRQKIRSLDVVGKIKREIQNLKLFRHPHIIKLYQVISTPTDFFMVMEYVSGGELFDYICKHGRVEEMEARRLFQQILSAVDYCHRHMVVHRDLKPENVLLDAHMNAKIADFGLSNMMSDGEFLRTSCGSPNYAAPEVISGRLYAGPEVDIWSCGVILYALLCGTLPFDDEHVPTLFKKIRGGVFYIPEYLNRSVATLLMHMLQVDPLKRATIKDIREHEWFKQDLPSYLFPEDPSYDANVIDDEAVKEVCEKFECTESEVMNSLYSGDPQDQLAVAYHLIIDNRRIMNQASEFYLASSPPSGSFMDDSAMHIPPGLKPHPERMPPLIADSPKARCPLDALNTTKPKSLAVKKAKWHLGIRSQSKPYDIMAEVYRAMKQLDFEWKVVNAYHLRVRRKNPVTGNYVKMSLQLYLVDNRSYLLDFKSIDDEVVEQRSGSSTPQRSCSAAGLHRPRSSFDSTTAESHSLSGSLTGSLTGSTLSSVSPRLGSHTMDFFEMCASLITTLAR
Sequence of AMPK A2/B1/G1 (Q9Y478 whole entry partner): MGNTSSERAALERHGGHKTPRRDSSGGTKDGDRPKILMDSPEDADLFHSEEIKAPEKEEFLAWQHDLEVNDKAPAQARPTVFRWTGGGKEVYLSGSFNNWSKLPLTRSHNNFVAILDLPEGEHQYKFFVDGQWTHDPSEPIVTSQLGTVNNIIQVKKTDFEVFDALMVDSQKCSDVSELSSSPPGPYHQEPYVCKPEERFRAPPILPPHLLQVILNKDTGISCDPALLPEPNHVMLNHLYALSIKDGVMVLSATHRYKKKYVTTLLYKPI
Sequence of AMPK A2/B1/G1 (P54619 whole entry partner): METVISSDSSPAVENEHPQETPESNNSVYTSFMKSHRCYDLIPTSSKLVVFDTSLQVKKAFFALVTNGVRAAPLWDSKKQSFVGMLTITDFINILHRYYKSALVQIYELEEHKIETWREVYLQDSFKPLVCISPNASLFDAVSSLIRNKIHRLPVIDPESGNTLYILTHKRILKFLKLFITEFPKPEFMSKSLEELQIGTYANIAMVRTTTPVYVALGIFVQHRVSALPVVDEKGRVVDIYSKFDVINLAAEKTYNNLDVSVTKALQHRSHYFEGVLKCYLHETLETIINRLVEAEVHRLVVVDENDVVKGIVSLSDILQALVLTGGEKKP
Procedure: as §1, §2

BMX = target: T3, BMX (Homo sapiens, UniProt P51813); experiment: SelectScreen kinase profiling, Z'-LYTE protocol; type: biochemical
T3 sequence (P51813 1-675): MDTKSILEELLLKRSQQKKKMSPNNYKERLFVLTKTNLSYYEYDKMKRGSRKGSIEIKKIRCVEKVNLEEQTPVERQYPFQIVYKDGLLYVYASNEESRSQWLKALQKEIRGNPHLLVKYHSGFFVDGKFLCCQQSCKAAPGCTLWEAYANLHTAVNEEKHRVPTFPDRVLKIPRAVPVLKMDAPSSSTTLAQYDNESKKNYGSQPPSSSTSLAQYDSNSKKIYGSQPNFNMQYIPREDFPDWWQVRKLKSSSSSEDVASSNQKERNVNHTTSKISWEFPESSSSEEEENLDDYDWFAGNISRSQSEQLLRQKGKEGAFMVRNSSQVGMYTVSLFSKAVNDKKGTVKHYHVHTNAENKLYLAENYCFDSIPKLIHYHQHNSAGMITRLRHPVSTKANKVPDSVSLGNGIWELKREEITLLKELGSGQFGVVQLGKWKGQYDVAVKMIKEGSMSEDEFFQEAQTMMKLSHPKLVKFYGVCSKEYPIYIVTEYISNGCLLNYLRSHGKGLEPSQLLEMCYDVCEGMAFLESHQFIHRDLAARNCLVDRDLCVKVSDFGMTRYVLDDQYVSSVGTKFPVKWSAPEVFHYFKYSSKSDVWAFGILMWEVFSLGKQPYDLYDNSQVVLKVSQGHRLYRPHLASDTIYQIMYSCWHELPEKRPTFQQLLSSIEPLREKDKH
Procedure: as §1, §2

PLK1 = PLK1 (Homo sapiens, UniProt P53350); experiment: SelectScreen kinase profiling, Z'-LYTE protocol; type: biochemical
Sequence of PLK1 (P53350 whole entry): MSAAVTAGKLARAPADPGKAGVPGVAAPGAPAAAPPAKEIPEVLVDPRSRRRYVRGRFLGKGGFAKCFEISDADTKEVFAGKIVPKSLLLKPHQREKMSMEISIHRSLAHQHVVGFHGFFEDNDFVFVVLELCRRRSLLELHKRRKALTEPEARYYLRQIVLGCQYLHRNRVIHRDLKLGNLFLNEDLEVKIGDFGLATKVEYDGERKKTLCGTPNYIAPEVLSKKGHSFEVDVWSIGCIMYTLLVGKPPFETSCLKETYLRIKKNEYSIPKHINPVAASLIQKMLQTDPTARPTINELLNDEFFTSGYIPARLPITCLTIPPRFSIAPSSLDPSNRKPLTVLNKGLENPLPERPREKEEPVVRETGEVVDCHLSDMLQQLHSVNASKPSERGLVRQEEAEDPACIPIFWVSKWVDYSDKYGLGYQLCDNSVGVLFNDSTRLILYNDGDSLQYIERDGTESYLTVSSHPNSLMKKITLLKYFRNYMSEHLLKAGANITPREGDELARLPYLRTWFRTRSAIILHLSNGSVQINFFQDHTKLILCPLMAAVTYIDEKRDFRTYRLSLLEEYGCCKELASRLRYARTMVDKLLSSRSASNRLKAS
Procedure: as §1, §2

[2] = target: BTK (Bruton's tyrosine kinase) (Homo sapiens, UniProt Q06187); experiment: SelectScreen kinase profiling, Z'-LYTE protocol; type: biochemical
Sequence of BTK (Bruton's tyrosine kinase) (Q06187 whole entry): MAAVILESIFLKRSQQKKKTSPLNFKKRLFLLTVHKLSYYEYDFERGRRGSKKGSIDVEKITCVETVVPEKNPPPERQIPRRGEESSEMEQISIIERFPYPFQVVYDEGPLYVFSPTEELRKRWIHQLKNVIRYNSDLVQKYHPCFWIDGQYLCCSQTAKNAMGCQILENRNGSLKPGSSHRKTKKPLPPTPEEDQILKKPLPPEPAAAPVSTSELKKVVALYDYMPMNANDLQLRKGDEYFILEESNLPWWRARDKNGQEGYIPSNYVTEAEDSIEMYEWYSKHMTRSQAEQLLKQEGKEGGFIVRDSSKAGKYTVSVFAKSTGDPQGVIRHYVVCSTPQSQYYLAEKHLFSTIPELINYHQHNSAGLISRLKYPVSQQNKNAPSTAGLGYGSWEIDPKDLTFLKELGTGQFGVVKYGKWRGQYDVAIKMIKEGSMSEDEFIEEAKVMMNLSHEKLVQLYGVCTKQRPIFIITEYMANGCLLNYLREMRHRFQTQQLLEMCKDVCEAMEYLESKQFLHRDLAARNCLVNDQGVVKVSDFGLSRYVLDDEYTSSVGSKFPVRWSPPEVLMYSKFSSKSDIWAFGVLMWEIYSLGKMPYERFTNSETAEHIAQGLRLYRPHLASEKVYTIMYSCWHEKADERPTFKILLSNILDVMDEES
Procedure: as §1, §2

[3] = system: HL-60 (human leukaemia) cell line; experiment: MTT cell proliferation assay, HL-60; type: cell-based; details: HL-60, MTT assay, 2 days, read-out: IC50, growth inhibition
Procedure: (§3) Cancer assays were performed using MTT cell proliferation assays with three different immortalised cell lines: a human leukaemia cell line (HL-60), an ovarian cancer cell line (1A9) and a breast cancer cell line (MCF7).
(§4) HL-60, 1A9 and MCF cells were cultured at 37° C. in a 5% CO2 in air atmosphere in RPMI-1640 medium supplemented with 10% fetal calf serum, 100 units/mL penicillin, and 100 units/mL streptomycin (with 0.1% insulin added to the medium for 1A9 and MCF7 cell cultures). An MTT cell proliferation assay was used that involved the reduction of 3-(4,5-dimethylthiazol-2-yl)-2,5-diphenoyltetrazolium bromide (MTT) by viable cells as previously described.^14 Cells were treated with compounds of the invention in 96-well plates (duplicate wells) for 2 days (for HL-60) or 3 days (for 1A9 or MCF7), then incubated with 5 mg/mL MTT in phosphate-buffered saline for 2 h. The blue crystals that formed were solubilised in 10% sodium dodecyl sulfate, 45% dimethylformamide and the absorbance of the solutions measured at 570 nm in a multiwell plate reader (EnSpire™ 2300 Multiplate Reader from Perkin Elmer, Waltham, USA. The half-maximal inhibitory concentration (IC50) was calculated from a concentration-response curve using Sigma Plot software v8 (Systat Software Inc. Point Richmond, Calif.).

[4] = system: MCF7 (breast cancer) cell line; experiment: MTT cell proliferation assay, MCF7; type: cell-based; details: Homo sapiens, 72 h, 3 days, read-out: IC50, growth inhibition
Procedure: as §3, §4

[5] = system: 1A9 (ovarian cancer) cell line; experiment: MTT cell proliferation assay, 1A9; type: cell-based; details: 1A9, MTT assay, 3 days; read-out: IC50, growth inhibition
Procedure: as §3, §4

[6] = read-out: Inhibition (IC50 at 10 μM)
[7] = single-point, read-out: percent inhibition

Sequence of c-Src (sarcoma) kinase (P12931 whole entry): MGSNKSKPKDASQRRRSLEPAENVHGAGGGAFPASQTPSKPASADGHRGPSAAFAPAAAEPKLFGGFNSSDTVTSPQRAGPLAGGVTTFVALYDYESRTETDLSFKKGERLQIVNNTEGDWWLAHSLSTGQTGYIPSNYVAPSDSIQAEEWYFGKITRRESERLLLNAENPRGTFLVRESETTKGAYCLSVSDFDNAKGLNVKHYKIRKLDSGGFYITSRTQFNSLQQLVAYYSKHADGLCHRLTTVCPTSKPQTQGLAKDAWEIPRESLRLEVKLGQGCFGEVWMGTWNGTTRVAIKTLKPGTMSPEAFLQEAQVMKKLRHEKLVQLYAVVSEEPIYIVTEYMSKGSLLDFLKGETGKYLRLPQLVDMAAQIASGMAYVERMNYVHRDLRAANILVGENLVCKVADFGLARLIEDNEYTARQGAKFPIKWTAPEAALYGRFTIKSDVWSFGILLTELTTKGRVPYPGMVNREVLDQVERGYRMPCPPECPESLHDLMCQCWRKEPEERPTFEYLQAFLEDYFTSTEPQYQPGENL

IC50 ([3]; Homo sapiens, 48 h): 42 µM
Compound: C[C@@H]1OC(=O)C2=C[C@@H](O)[C@@H](/C=C/CO)O[C@@H]21 [Compound 19, Hydroxy-TAN-2483B]

IC50 [5]: 3.4 µM
IC50 [3]: 2.2 µM
Compound: (−)-TAN-2483B E-ethyl ester [Compound 14]

Further lines, the compound ahead of its results:

Compound: C/C=C/[C@H]1O[C@@H]2C(=C[C@H]1O)C(=O)O[C@H]2C [(−)-TAN-2483A]
inhibition of c-Src (sarcoma) kinase (c-Src (sarcoma) kinase): inhibition
inhibition of PTH-induced bone resorption [1]: inhibition

Compound: C/C=C/[C@H]1O[C@H]2C(=C[C@H]1O)C(=O)O[C@H]2C [(−)-TAN-2483B]
inhibition of c-Src (sarcoma) kinase (c-Src (sarcoma) kinase): inhibition
inhibition of PTH-induced bone resorption [1]: inhibition

Compound: CCOC(=O)/C=C\[C@H]1O[C@H]2C(=C[C@H]1O)C(=O)O[C@H]2C [Compound 10, (−)-TAN-2483B Z-ethyl ester]
inhibition at 10 µM (NUAK2; NUAK2, at 10 μM, read-out: Inhibition (IC50 at 10 μM)): 76%
inhibition at 10 µM (NUAK2; NUAK2, single-point, at 10 μM, read-out: percent inhibition): 76%
inhibition at 10 µM (TXK; TXK1, at 10 μM, read-out: Inhibition (IC50 at 10 μM)): 71%
inhibition at 10 µM (TXK; TXK, single-point, at 10 μM, read-out: percent inhibition): 71%
inhibition at 10 µM (MAPK14 (p38 alpha); MAPK14 (p38 alpha), single-point, at 10 μM, read-out: percent inhibition): 74%
inhibition at 10 µM (MAPK14 (p38 alpha); MAPK14, at 10 μM, read-out: Inhibition (IC50 at 10 μM)): 74%
inhibition at 10 µM (AMPK A2/B1/G1; AMPK A2/B1/G1, at 10 μM, read-out: Inhibition (IC50 at 10 μM)): 81%
inhibition at 10 µM (AMPK A2/B1/G1; AMPK A2/B1/G1, single-point, at 10 μM, read-out: percent inhibition): 81%
inhibition at 10 µM (BMX; [6]): 80%
inhibition at 10 µM (BMX; [7]): 80%
inhibition at 10 µM (PLK1; PLK1, at 10 μM, read-out: Inhibition (IC50 at 10 μM)): 81%
inhibition at 10 µM (PLK1; PLK1, single-point, at 10 μM, read-out: percent inhibition): 81%
inhibition at 10 µM [2, 6]: 83%
inhibition at 10 µM [2, 7]: 83%
IC50 ([3]; Homo sapiens, 48 h): 3.6 µM
IC50 [4]: 9 µM
